# From patent publication US11371055B2, “Herbicide resistance genes” (CORTEVA AGRISCIENCE LLC, priority 2005, dated 2022)
# How the values were obtained:
# [1] = test system: R-dichlorprop habituated BY2 tobacco cells; experiment: 2,4-D dose response of tobacco cell suspension (BY2); assay type: cell-based; conditions: LSBY2C medium
# Experimental: (§1) A dose response study was conducted with both the R-dichlorprop habituated PHL cells and the R-dichlorprop habituated BY2 cells where R-dichlorprop was substituted directly for 2,4-D in culture media. Though the focus was on PHL, a dose response was also done with BY2 in case of possible future studies, as well as to help predict the dose response for PHL. For the dichlorprop habituated PHL dose response, the levels of 2,4-D used (on LSBY2C medium with R-dichlorprop) were 0 (the control), 1, 2, 3, 5, 8, 10, 12, 15, 18, 20, 40, 60, 80, […] mg/L 2,4-D. There were four replications per concentration. For the R-dichlorprop habituated BY2 dose response, the levels of 2,4-D used (on LSBY2C medium) were 0 (the control), 1, 2, 3, 5, 8, 10, 20, 30, 40, mg/L 2,4-D.
# [2] = test system: R-dichlorprop habituated PHL (Petite Havana) tobacco cells; experiment: 2,4-D dose response of tobacco cell suspension (PHL); assay type: cell-based
# Experimental: as §1
# [3] = test system: PAT-only transformed soybean plants; experiment: 2,4-D leaf paint (leaf flip assay) on PAT-only transformed soybean; assay type: in vivo, Glycine max; design: key: 1 = Flip; 0 = No Flip; conditions: event D-2-3 (pDAB4499, PAT, CsVMV)
# Description: Plants that are transferred to the greenhouse can be assayed for the presence of an active PAT gene further with a non-destructive manner by painting a section of leaf of the T0 primary transformant, or progeny thereof, with a glufosinate solution [0.05-2% v/v Liberty Herbicide, preferably 0.25-1.0% (v/v),=500-2000 ppm glufosinate, Bayer Crop Science]. Depending on the concentration used, assessment for glufosinate injury can be made 1-7 days after treatment. Plants can also be tested for 2,4-D tolerance in a non-destructive manner by selective application of a 2,4-D solution in water (0.25-1% v/v commercial 2,4-D dimethylamine salt formulation, preferably 0.5% v/v=2280 ppm 2,4-D ae) to the terminal leaflet of the newly expanding trifoliolate one or two, preferably two, nodes below the youngest emerging trifolioate. […] Glyphosate resistance (in plants transformed with constructs that contain EPSPS) or another glyphosate tolerance gene can be assessed in the T1 generation by postemergence applications of glyphosate with a dose range from 280-2240 g ae/ha glyphosate. […] Individual T0 plants were assessed for the presence of the coding region of the gene of interest (AAD-12 (v1) or PAT v6) and copy number. […]
# A subset of the initial transformants were assessed in the T0 generation according to the methods above. […]
# [4] = test system: untransformed control canola plants; experiment: 2,4-D DMA tolerance, untransformed canola control; assay type: in vivo, Brassica napus
# Description: (§2) Surviving plants were transplanted into 3-inch pots containing Metro Mix media. Surviving plants from T1 progenies, that were selected with 560 g ae/ha 2,4-D, were also transplanted into 3-inch pots filled with Metro Mix soil. At 2-4 leaf stage plants were sprayed with either 280, 560, 1120, or 2240 g ae/ha 2,4-D DMA. Plants were graded at 3 and 14 DAT and compared to untransformed control plants. A sampling of T1 event injury data 14DAT may be seen in Table 30.
# [5] = test system: F1 stack of AAD-12 (v1) (pDAB4101) and BE1146RR corn; experiment: Herbicide tolerance of F1 stack AAD-12 (v1) x BE1146RR corn; assay type: in vivo, Zea mays; conditions: 1120 g ae/ha 2,4-D DMA
# Description: AAD-12 (v1) (pDAB4101) and elite Roundup Ready inbred (BE1146RR) were reciprocally crossed and F1 seed was collected. The seed from two F1 lines were planted and treated with 70 g ae/ha imazethapyr at the V2 stage to eliminate nulls. To the surviving plants, reps were separated and either treated with 1120 g ae/ha 2,4-D DMA+70 g ae/ha imazethapyr (to confirm presence of AHAS gene) or 1120 g ae/ha 2,4-D DMA+1680 g ae/ha glyphosate (to confirm the presence of the Round Up Ready gene) in a track sprayer calibrated to 187 L/ha. Plants were graded 3 and 16 DAT.
# [6] = test system: T1 AAD-12 (v1) canola; experiment: 2,4-D DMA tolerance in T1 canola; assay type: in vivo, Brassica napus
# Experimental: For T1 AAD-12 (v1), 5-6 mg of seed were stratified, sown, and a fine layer of Sunshine Mix #5 media was added as a top layer of soil. Emerging plants were selected with 560 g ae/ha 2,4-D at 7 and 13 days after planting.
# as §2
# [7] = LSBY2C medium with R-dichlorprop
structure (smiles),measurement,setting,value
"O=C(O)COc1ccc(Cl)cc1Cl [2,4-D, 2,4-dichlorophenoxyacetic acid]","lethal concentration of 2,4-D",[1],10 mg/L
same,"sub lethal concentration of 2,4-D",[1],8 mg/L
same,growth of PHL suspension,"[2]; 10-mg/L 2,4-D",slight growth
same,"2,4-D concentrations with growth comparable to control treatments",[2]; [7],1 to 8 mg/L
same,"lethal concentrations of 2,4-D",[2]; [7],above 10 mg/L
same,Leaf flip assay (18 HAT) Node N-2,[3],1
"CNC.O=C(O)COc1ccc(Cl)cc1Cl [2,4-D DMA]",Average % injury 14 DAT,[4]; 280 g ae/ha,85%
same,Average % injury 14 DAT,[4]; 560 g ae/ha,85%
same,Average % injury 14 DAT,[4]; 1120 g ae/ha,90%
same,Average % injury 14 DAT,[4]; 2240 g ae/ha,95%
same,Average % Injury 16DAT,[5]; AAD-12 (v1) pDAB4101(0)003.R003.AF,0%
same,Average % Injury 16DAT,[5]; AAD-12 (v1) pDAB4101(0)005.R001.AF,0%
same,Average % injury 14 DAT,"[6]; T1 pDAB3759(18)009.001, 280 g ae/ha",0%
same,Average % injury 14 DAT,"[6]; T1 pDAB3759(18)009.001, 560 g ae/ha",0%
same,Average % injury 14 DAT,"[6]; T1 pDAB3759(18)009.001, 1120 g ae/ha",0%
same,Average % injury 14 DAT,"[6]; T1 pDAB3759(18)009.001, 2240 g ae/ha",5%
same,Average % injury 14 DAT,"[6]; T1 pDAB3759(18)022.001, 280 g ae/ha",0%
same,Average % injury 14 DAT,"[6]; T1 pDAB3759(18)022.001, 560 g ae/ha",0%
same,Average % injury 14 DAT,"[6]; T1 pDAB3759(18)022.001, 1120 g ae/ha",13%
same,Average % injury 14 DAT,"[6]; T1 pDAB3759(18)022.001, 2240 g ae/ha",83%
same,Average % injury 14 DAT,"[6]; T1 pDAB3759(18)023.001, 280 g ae/ha",0%
same,Average % injury 14 DAT,"[6]; T1 pDAB3759(18)023.001, 560 g ae/ha",0%
same,Average % injury 14 DAT,"[6]; T1 pDAB3759(18)023.001, 1120 g ae/ha",3%
same,Average % injury 14 DAT,"[6]; T1 pDAB3759(18)023.001, 2240 g ae/ha",6%
same,Average % injury 14 DAT,"[6]; T1 pDAB3759(18)030.001, 280 g ae/ha",0%
same,Average % injury 14 DAT,"[6]; T1 pDAB3759(18)030.001, 560 g ae/ha",0%
same,Average % injury 14 DAT,"[6]; T1 pDAB3759(18)030.001, 1120 g ae/ha",5%
same,Average % injury 14 DAT,"[6]; T1 pDAB3759(18)030.001, 2240 g ae/ha",31%
same,Average % injury 14 DAT,"[6]; T1 pDAB3759(33)013.001, 280 g ae/ha",0%
same,Average % injury 14 DAT,"[6]; T1 pDAB3759(33)013.001, 560 g ae/ha",0%
same,Average % injury 14 DAT,"[6]; T1 pDAB3759(33)013.001, 1120 g ae/ha",0%
same,Average % injury 14 DAT,"[6]; T1 pDAB3759(33)013.001, 2240 g ae/ha",1%
